From patent US20250057866A1, “A SYNERGISTIC PHARMACEUTICAL COMPOSITION AND ITS ANTIVIRAL USE” (priority 2022, published 2025)
Read-outs that look alike come from different tables or passages of the source.

Tested on: virus (0.01 MOI) in Vero-E6 cells
Assay: In vitro antiviral activity EC50 assay (CCK8, 48 h, 0.01 MOI virus in Vero-E6 cells)
Type: cell-based
Conditions: combination mol./mol.=1/1, combined total concentration
Experimental: • 1) Vero-E6 cells were digested and passaged. The cells were adjusted to a density of 1×10^5 cells/mL with DMEM containing 10% FBS, then seeded in a 96-well plate (100 μl/well), and incubated in a 35° C., 6% CO2 incubator for 20 h; • 2) Compound 1 and Compound 2 (mol./mol.=1/1) were diluted with DMEM containing 1% FBS to provide compositions with combined total concentrations (Compound 1+Compound 2) of 200 μM, 60 μM, 20 μM, 6 μM, 2 μM, 0.6 μM, 0.2 μM, 0.06 μM, and 0.02 μM; • 3) The culture medium in each well was removed, and the 96-well plate was marked on its lid, washed three times with 1×PBS, and 100 μL of dilutions of the compositions prepared above was added to each well, followed by 100 μL of a 0.01 multiplicity of infection (MOI) virus solution, so as to obtain final combined total concentrations of the compounds (Compound 1+Compound 2) at 100 μM, 30 μM, 10 μM, 3 μM, 1 μM, 0.3 μM, 0.1 μM, 0.03 μM, 0.01 μM. The 96-well plate, including a cell control group and a virus control group, was then incubated in a 35° C., 6% CO2 incubator; • 4) After 48 h, the cell viability was tested with a CCK8 kit.

[2H]C(OC(=O)C(C)C)[C@H]1O[C@@H](n2ccc(NO)nc2=O)[C@H](O)[C@@H]1O (stereo partly drawn) [Compound 2, ((2R, 3S, 4R, 5R)-3,4-dihydroxy-5-(4-(hydroxylamino)-2-oxopyrimidin-1 (2H)-yl)tetrahydrofuran-2-yl) deuterated methyl isobutyl ester]
EC50 (Vero C1008, 48 h): 1.56 µM | EC50 (read-out: EC50): 1.72 ± 0.585 µM

[2H]C1([2H])C[C@@H](C[C@@H](C#N)NC(=O)[C@@H]2[C@@H]3[C@H](CN2C(=O)[C@@H](NC(=O)C(F)(F)F)C(C)(C)C)C3(C)C)C(=O)N1 [Compound 1]
EC50 (Vero C1008, 48 h): 1.72 µM | EC50 (read-out: EC50): 1.56 ± 0.576 µM
